In patent publication US10550105B2 (Ribon Therapeutics Inc., priority 2018, dated 2020):

Each compound was assayed against PARP7 (Homo sapiens (Human), UniProt Q7Z3E1) (assay: Enzymatic assay for inhibition of PARP7: TR-FRET displacement of biotinylated Probe A from the TIPARP active site). Details: Table A-1.
Format: binding
Method in brief: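 Percent inhibition derives from the ratio of 665 to 615 nm emission, which reports how much Probe A remains bound to TIPARP. Plates sat 30 min at 25° C before the time-resolved read (320 nm excitation).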

Chain of PARP7 (Q7Z3E1 whole entry): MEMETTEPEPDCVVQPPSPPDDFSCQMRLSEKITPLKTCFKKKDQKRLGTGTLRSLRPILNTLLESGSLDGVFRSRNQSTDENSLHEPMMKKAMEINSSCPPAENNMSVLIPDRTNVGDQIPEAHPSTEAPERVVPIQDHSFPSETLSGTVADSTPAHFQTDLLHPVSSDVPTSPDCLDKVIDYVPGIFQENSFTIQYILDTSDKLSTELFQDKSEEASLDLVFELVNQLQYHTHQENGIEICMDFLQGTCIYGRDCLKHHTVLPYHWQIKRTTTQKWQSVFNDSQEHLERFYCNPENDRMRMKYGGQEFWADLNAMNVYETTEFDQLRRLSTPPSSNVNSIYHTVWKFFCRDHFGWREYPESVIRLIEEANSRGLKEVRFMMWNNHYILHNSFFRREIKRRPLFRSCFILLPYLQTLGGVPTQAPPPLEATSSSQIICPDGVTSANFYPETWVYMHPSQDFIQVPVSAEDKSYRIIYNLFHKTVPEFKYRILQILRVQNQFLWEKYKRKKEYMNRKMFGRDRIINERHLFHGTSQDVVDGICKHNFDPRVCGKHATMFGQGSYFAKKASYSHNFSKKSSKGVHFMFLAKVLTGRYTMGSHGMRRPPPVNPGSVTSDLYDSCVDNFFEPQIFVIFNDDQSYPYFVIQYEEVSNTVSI

SMILES	IC50
N#Cc1ccc(N2CCN(C(=O)CCOC[C@@H]3C[C@H](C(F)(F)F)CN3c3cn[nH]c(=O)c3C(F)(F)F)CC2)nc1 [Example 133, 6-[4-(3-[[(2S,4S)-1-[6-oxo-5-(trifluoromethyl)-1,6-dihydropyridazin-4-yl]-4-(trifluoromethyl)pyrrolidin-2-yl]methoxy]propanoyl)piperazin-1-yl]pyridine-3-carbonitrile]	< 100 nM
O=c1[nH]ncc(N2Cc3cccc(OCC4CCCCO4)c3C2)c1C(F)(F)F (stereo not drawn) [Example 216, 5-(4-((Tetrahydro-2H-pyran-2-yl)methoxy)isoindolin-2-yl)-4-(trifluoromethyl)pyridazin-3(2H)-one]	< 100 nM
NCc1cccc2c1CN(c1cn[nH]c(=O)c1C(F)(F)F)C2 [Example 221, 5-(4-(Aminomethyl)isoindolin-2-yl)-4-(trifluoromethyl)pyridazin-3(2H)-one]	≥ 1000 nM
N#Cc1ccc(N2CCN(C(=O)c3cccc(OCCNc4cn[nH]c(=O)c4C(F)(F)F)c3)CC2)nc1 [Example 41, 6-(4-[[3-(2-[[6-oxo-5-(trifluoromethyl)-1,6-dihydropyridazin-4-yl]amino]ethoxy)phenyl]carbonyl]piperazin-1-yl)pyridine-3-carbonitrile]	< 100 nM
COCc1cccc2c1CN(c1cn[nH]c(=O)c1C(F)(F)F)C2 [Example 260, 5-(4-(Methoxymethyl)isoindolin-2-yl)-4-(trifluoromethyl)pyridazin-3(2H)-one]	< 100 nM
COc1cccc2c1CN(c1cn[nH]c(=O)c1Cl)C2 [Example 153, 4-Chloro-5-(4-methoxyisoindolin-2-yl)pyridazin-3(2H)-one]	100 to 1000 nM
CN1CCC(Oc2cccc3c2CN(c2cn[nH]c(=O)c2C(F)(F)F)C3)CC1 [Example 210, 5-(4-((1-Methylpiperidin-4-yl)oxy)isoindolin-2-yl)-4-(trifluoromethyl)pyridazin-3(2H)-one]	100 to 1000 nM
COc1ccc(F)c2c1CN(c1cn[nH]c(=O)c1C(F)(F)F)C2 [Example 267, 5-(4-Fluoro-7-methoxyisoindolin-2-yl)-4-(trifluoromethyl)pyridazin-3(2H)-one]	< 100 nM
N#Cc1ccc(N2CCN(C(=O)CCOCC3CCCCN3c3cn[nH]c(=O)c3C(F)(F)F)CC2)nc1 (stereo not drawn) [Example 130, 6-[4-[3-([1-[6-oxo-5-(trifluoromethyl)-1,6-dihydropyridazin-4-yl]piperidin-2-yl]methoxy)propanoyl]piperazin-1-yl]pyridine-3-carbonitrile]	100 to 1000 nM
CC(=O)N1CCC(Oc2cc3c(cc2F)CN(c2cn[nH]c(=O)c2C(F)(F)F)C3C)CC1 (stereo not drawn) [Example 5, 5-[6-[(1-acetylpiperidin-4-yl)oxy]-5-fluoro-1-methyl-2,3-dihydro-1H-isoindol-2-yl]-4-(trifluoromethyl)-2,3-dihydropyridazin-3-one]	100 to 1000 nM
N#Cc1ccc(N2CCN(C(=O)[C@H]3CC[C@H](OC[C@@H]4CCCN4c4cn[nH]c(=O)c4C(F)(F)F)CC3)CC2)nc1 (single isomer, unassigned; isomer a) [Example 82 Isomer A]	< 100 nM
O=C(CCOC[C@@H]1CCCN1c1cn[nH]c(=O)c1C(F)(F)F)N[C@H]1CC[C@@H](Nc2ccccn2)CC1 (single isomer, unassigned; isomer b) [Example 81 Isomer B]	≥ 1000 nM

Results, then the compound that gave them:

IC50	SMILES
< 100 nM	COC[C@@H](COCCC(=O)N1CCN(c2ccc(Cl)cn2)CC1)Nc1cn[nH]c(=O)c1C(F)(F)F [Example 593, 5-[[(2S)-1-[3-[4-(5-Chloropyridin-2-yl)piperazin-1-yl]-3-oxopropoxy]-3-methoxypropan-2-yl]amino]-4-(trifluoromethyl)-2,3-dihydropyridazin-3-one]
< 100 nM	C[C@@H](COCCC(=O)N1CCN(c2cnc(C(F)(F)F)s2)CC1)Nc1cn[nH]c(=O)c1C(F)(F)F [Example 709, (S)-5-((1-(3-Oxo-3-(4-(2-(trifluoromethyl)thiazol-5-yl)piperazin-1-yl)propoxy)propan-2-yl)amino)-4-(trifluoromethyl)pyridazin-3(2H)-one]
< 100 nM	C[C@@H](COCCC(=O)N1CCN(c2ccc(CC#N)cn2)CC1)Oc1cn[nH]c(=O)c1C(F)(F)F [Example 656, (S)-2-(6-(4-(3-(2-((6-Oxo-5-(trifluoromethyl)-1,6-dihydropyridazin-4-yl)oxy)propoxy)propanoyl)piperazin-1-yl)pyridin-3-yl)acetonitrile]
≥ 1000 nM	N#Cc1ccc(N2CCN(C(=O)C[C@@H]3CC[C@H](COc4cn[nH]c(=O)c4Cl)O3)CC2)nc1 [Example 582 Isomer D, 6-(4-[2-[(2S,5R)-5-[[(5-Chloro-6-oxo-1,6-dihydropyridazin-4-yl)oxy]methyl]oxolan-2-yl]acetyl]piperazin-1-yl)pyridine-3-carbonitrile]
< 100 nM	C[C@@H](COCCC(=O)N1CCCN(c2ncc(C(F)(F)F)cn2)CC1)Nc1cn[nH]c(=O)c1C(F)(F)F [Example 669, (S)-5-((1-(3-Oxo-3-(4-(5-(trifluoromethyl)pyrimidin-2-yl)-1,4-diazepan-1-yl)propoxy)propan-2-yl)amino)-4-(trifluoromethyl)pyridazin-3(2H)-one]
≥ 1000 nM	N#Cc1ccc(N2CCN(C(=O)C[C@H]3CC[C@H]([C@@H]4c5ccccc5CN4c4cn[nH]c(=O)c4C(F)(F)F)O3)CC2)nc1 (single isomer, unassigned) [Example 612 Isomer C]
< 100 nM	N#Cc1cnc(N2CCN(C(=O)CCOC[C@@H]3CCCN3c3cn[nH]c(=O)c3C(F)(F)F)CC2)cn1 [Example 474, (S)-5-(4-(3-((1-(6-Oxo-5-(trifluoromethyl)-1,6-dihydropyridazin-4-yl)pyrrolidin-2-yl)methoxy)propanoyl)piperazin-1-yl)pyrazine-2-carbonitrile]
100 to 1000 nM	COc1cc2c(cc1F)CN(c1cn[nH]c(=O)c1C(F)(F)F)C2C (stereo not drawn) [Example 315, 5-(5-Fluoro-6-methoxy-1-methylisoindolin-2-yl)-4-(trifluoromethyl)pyridazin-3(2H)-one]
≥ 1000 nM	N#Cc1cccnc1N1CCN(C(=O)c2cccc(OC[C@H]3c4ccccc4CN3c3cn[nH]c(=O)c3C(F)(F)F)c2)CC1 [Example 360, (R)-2-(4-(3-((2-(6-Oxo-5-(trifluoromethyl)-1,6-dihydropyridazin-4-yl)isoindolin-1-yl)methoxy)benzoyl)piperazin-1-yl)nicotinonitrile]
100 to 1000 nM	N#Cc1ccc(N2CCN(C(=O)c3cncc(OC[C@H]4c5ccccc5CN4c4cn[nH]c(=O)c4C(F)(F)F)c3)CC2)nc1 [Example 354, (R)-6-(4-(5-((2-(6-Oxo-5-(trifluoromethyl)-1,6-dihydropyridazin-4-yl)isoindolin-1-yl)methoxy)nicotinoyl)piperazin-1-yl)nicotinonitrile]
< 100 nM	N#Cc1ccc(N2CCN(C(=O)c3ccc(OCCc4cccc5c4CN(c4cn[nH]c(=O)c4C(F)(F)F)C5)cc3)CC2)nc1 [Example 402, 6-(4-(4-(2-(2-(6-Oxo-5-(trifluoromethyl)-1,6-dihydropyridazin-4-yl)isoindolin-4-yl)ethoxy)benzoyl)piperazin-1-yl)nicotinonitrile]
< 100 nM	CS(=O)(=O)c1ccc(N2CCN(C(=O)CCOC[C@@H]3CCCN3c3cn[nH]c(=O)c3C(F)(F)F)CC2)nc1 [Example 483, (S)-5-(2-((3-(4-(5-(Methylsulfonyl)pyridin-2-yl)piperazin-1-yl)-3-oxopropoxy)methyl)pyrrolidin-1-yl)-4-(trifluoromethyl)pyridazin-3(2H)-one]
